Data published in the NIST ThermoML archive (doi:10.1016/j.jct.2005.03.019).

Assay: xn = mol fraction of the nth substance listed
Conditions: 101 kPa, Liquid, Vibrating tube method

C=Cc1ccccc1 [styrene] + CC1COC(=O)O1
Conditions	mass density [kg/m3]
293.15 K, x1 = 0.0537	1180.1
293.15 K, x1 = 0.1389	1149.3
293.15 K, x1 = 0.1832	1134
293.15 K, x1 = 0.2341	1116.8
293.15 K, x1 = 0.294	1097.3
293.15 K, x1 = 0.3867	1068.4
293.15 K, x1 = 0.4379	1053.1
293.15 K, x1 = 0.5089	1032.5
293.15 K, x1 = 0.5799	1012.6
293.15 K, x1 = 0.6328	998.3
293.15 K, x1 = 0.6978	981.1
293.15 K, x1 = 0.7534	966.7
293.15 K, x1 = 0.8136	951.5
293.15 K, x1 = 0.8738	936.6
293.15 K, x1 = 0.9348	921.7
293.15 K, x1 = 1	906
303.15 K, x1 = 0.0613	1158.4
303.15 K, x1 = 0.1289	1134.8
303.15 K, x1 = 0.1743	1119.6
303.15 K, x1 = 0.2389	1098.5
303.15 K, x1 = 0.2976	1080.1
303.15 K, x1 = 0.3681	1058.8
303.15 K, x1 = 0.4178	1044.3
303.15 K, x1 = 0.4622	1031.7
303.15 K, x1 = 0.5239	1014.6
303.15 K, x1 = 0.5919	996.3
303.15 K, x1 = 0.6521	980.7
303.15 K, x1 = 0.7244	962.4
303.15 K, x1 = 0.7932	945.4
303.15 K, x1 = 0.8472	932.4
303.15 K, x1 = 0.9247	914
303.15 K, x1 = 1	896.4
313.15 K, x1 = 0.0473	1144.7
313.15 K, x1 = 0.1255	1118.3
313.15 K, x1 = 0.1922	1096.7
313.15 K, x1 = 0.2467	1079.7
313.15 K, x1 = 0.2844	1068.3
313.15 K, x1 = 0.3388	1052.2
313.15 K, x1 = 0.4032	1033.8
313.15 K, x1 = 0.4789	1013
313.15 K, x1 = 0.5376	997.4
313.15 K, x1 = 0.6198	976.4
313.15 K, x1 = 0.6638	965.4
313.15 K, x1 = 0.7398	946.9
313.15 K, x1 = 0.8133	929.5
313.15 K, x1 = 0.8756	915.1
313.15 K, x1 = 0.9456	899.1
313.15 K, x1 = 1	886.9
323.15 K, x1 = 0.0598	1122.3
323.15 K, x1 = 0.1431	1095.3
323.15 K, x1 = 0.1846	1082.4
323.15 K, x1 = 0.2572	1060.6
323.15 K, x1 = 0.3312	1039.2
323.15 K, x1 = 0.3841	1024.5
323.15 K, x1 = 0.4423	1008.8
323.15 K, x1 = 0.4928	995.6
323.15 K, x1 = 0.5634	977.7
323.15 K, x1 = 0.6143	965.1
323.15 K, x1 = 0.6635	953.3
323.15 K, x1 = 0.7187	940.3
323.15 K, x1 = 0.7749	927.3
323.15 K, x1 = 0.8353	913.6
323.15 K, x1 = 0.9244	893.8
323.15 K, x1 = 1	877.3
333.15 K, x1 = 0.0534	1106.6
333.15 K, x1 = 0.113	1087.7
333.15 K, x1 = 0.1682	1070.9
333.15 K, x1 = 0.2134	1057.5
333.15 K, x1 = 0.2843	1037.2
333.15 K, x1 = 0.3587	1016.8
333.15 K, x1 = 0.4238	999.7
333.15 K, x1 = 0.479	985.6
333.15 K, x1 = 0.5359	971.5
333.15 K, x1 = 0.5831	960.1
333.15 K, x1 = 0.6811	937.2
333.15 K, x1 = 0.7529	920.9
333.15 K, x1 = 0.8243	905.2
333.15 K, x1 = 0.8871	891.7
333.15 K, x1 = 0.9424	879.9
333.15 K, x1 = 1	867.8
343.15 K, x1 = 0.0648	1085.6
343.15 K, x1 = 0.1198	1068.9
343.15 K, x1 = 0.1823	1050.6
343.15 K, x1 = 0.2398	1034.3
343.15 K, x1 = 0.318	1013
343.15 K, x1 = 0.3832	996
343.15 K, x1 = 0.4429	981
343.15 K, x1 = 0.5138	963.8
343.15 K, x1 = 0.5824	947.6
343.15 K, x1 = 0.6529	931.6
343.15 K, x1 = 0.7039	920.3
343.15 K, x1 = 0.7735	905.2
343.15 K, x1 = 0.8423	890.7
343.15 K, x1 = 0.8814	882.5
343.15 K, x1 = 0.9476	868.9
343.15 K, x1 = 1	858.2
353.15 K, x1 = 0.0621	1069.6
353.15 K, x1 = 0.1257	1051
353.15 K, x1 = 0.1644	1040
353.15 K, x1 = 0.2312	1021.6
353.15 K, x1 = 0.3042	1002.2
353.15 K, x1 = 0.3718	985
353.15 K, x1 = 0.4423	967.7
353.15 K, x1 = 0.5021	953.5
353.15 K, x1 = 0.5539	941.6
353.15 K, x1 = 0.6243	925.9
353.15 K, x1 = 0.6912	911.4
353.15 K, x1 = 0.752	898.5
353.15 K, x1 = 0.8132	885.9
353.15 K, x1 = 0.8642	875.5
353.15 K, x1 = 0.9248	863.4
353.15 K, x1 = 1	848.6
